Test results reported in BindingDB's records for doi:10.1016/j.ejmech.2023.115404 (Southwest Jiaotong University, 2023).

Target: Dual leucine zipper kinase (MAP3K12) (Homo sapiens)
Experiment: Binding affinity to DLK (unknown origin) assessed as inhibition constant

Ki [nM] | SMILES
145 | CC(C)n1nc(Nc2cc(C(F)(F)F)ccn2)cc1C1CCNCC1
33 | CC(=O)N1CCC(c2cc(Nc3cc(C(F)(F)F)ccn3)nc(N3CCC(F)(F)C3)n2)CC1
